Source: US12697402B2, “Detection of colonic neoplasia in vivo using near-infrared peptide targeted against overexpressed cMet” (THE REGENTS OF THE UNIVERSITY OF MICHIGAN, priority 2019, dated 2026)
pKd: −log10 of the molar value. Entries after “also recorded” stand apart in the source; their conditions may differ. Peptide text beside a SMILES is read from it. * marks the point of attachment. X1 = CN1/C(=C/C=C/C=C/C2=[N+](CCCCCC(=O)*)c3ccc4ccccc4c3C2(C)C)C(C)(C)c2c1ccc1ccccc21

Key:
[1] = system: phosphorylation of cMet, AKT and ERK1/2; experiment: Effect of peptide on cell signaling (Western blot); type: cell-based, human; details: HT29 cells; 10, 30, 120 min; HGF 25 ng/mL; peptide 5 or 100 μM
Protocol: HT29 cells were treated with serum-free medium overnight for starvation before incubation with hHGF (hHGF, 294-HG-005, R&D) or peptides. Recombinant Human HGF Protein was added to HT29 cells at concentrations of 25 ng/ml for 10, 30, or 120 min in separate wells. QQT*-Cy5.5 and TLQ*-Cy5.5 were added at concentrations of 5 or 100 μM for 10, 30, and 120 min. Peptides were added at concentrations of 5 and 100 μM for 10, 30, or 120 min. Cells were then washed with 1×PBS and lysed with Pierce RIPA buffer containing Halt Phosphatase Inhibitor Cocktail (Thermo Fisher) and Halt Protease Inhibitor Cocktail (Thermo Fisher). Protein contents were quantified by Bicinchoninic Acid Assay (BCA). Anti-cMet antibody (Cell Signaling, #8198), phospho-cMet (Tyr1234/1235) antibody (Cell Signaling, #3077), anti-AKT antibody (Cell Signaling, #4691), anti-phospho-AKT antibody (Cell Signaling, #9271), anti-ERK1/2 antibody (Abcam, #ab17942), anti-phospho-ERK1/2 antibody (Abcam, #ab50011), and anti-tubulin antibody (Invitrogen, #32-2600) were used per manufacturer's instructions.

[2] = system: HT29 cells; experiment: Alamar blue assay, HT29; type: cell-based, human; details: 48 hours; HGF 25 ng/mL; peptide 5 or 100 μM
Protocol: (§1) An alamar blue assay was performed using HT29 and CCD841 cells. After culturing in serum free media overnight, about 3×10^3 cells were seeded per well in serum free media in 96 well plates at a final volume of 100 μL per well. […] Alamar blue reagent (10 μL) was added in amounts equal to 10% of the volume in the well, and incubated at 37° C. for 4 hours. Fluorescence with excitation at λex=530-560 nm, and emission at λex=590 nm, was measured.

[3] = system: CCD841 cells; experiment: Alamar blue assay, CCD841; type: cell-based, human; details: normal colon cells; 48 hours; HGF 25 ng/mL; peptide 5 or 100 μM
Protocol: as §1

[4] = target: cMet (HT29 cells) (Homo sapiens, UniProt P08581); experiment: biochemical
cMet (HT29 cells), sequence (P08581 25-1390): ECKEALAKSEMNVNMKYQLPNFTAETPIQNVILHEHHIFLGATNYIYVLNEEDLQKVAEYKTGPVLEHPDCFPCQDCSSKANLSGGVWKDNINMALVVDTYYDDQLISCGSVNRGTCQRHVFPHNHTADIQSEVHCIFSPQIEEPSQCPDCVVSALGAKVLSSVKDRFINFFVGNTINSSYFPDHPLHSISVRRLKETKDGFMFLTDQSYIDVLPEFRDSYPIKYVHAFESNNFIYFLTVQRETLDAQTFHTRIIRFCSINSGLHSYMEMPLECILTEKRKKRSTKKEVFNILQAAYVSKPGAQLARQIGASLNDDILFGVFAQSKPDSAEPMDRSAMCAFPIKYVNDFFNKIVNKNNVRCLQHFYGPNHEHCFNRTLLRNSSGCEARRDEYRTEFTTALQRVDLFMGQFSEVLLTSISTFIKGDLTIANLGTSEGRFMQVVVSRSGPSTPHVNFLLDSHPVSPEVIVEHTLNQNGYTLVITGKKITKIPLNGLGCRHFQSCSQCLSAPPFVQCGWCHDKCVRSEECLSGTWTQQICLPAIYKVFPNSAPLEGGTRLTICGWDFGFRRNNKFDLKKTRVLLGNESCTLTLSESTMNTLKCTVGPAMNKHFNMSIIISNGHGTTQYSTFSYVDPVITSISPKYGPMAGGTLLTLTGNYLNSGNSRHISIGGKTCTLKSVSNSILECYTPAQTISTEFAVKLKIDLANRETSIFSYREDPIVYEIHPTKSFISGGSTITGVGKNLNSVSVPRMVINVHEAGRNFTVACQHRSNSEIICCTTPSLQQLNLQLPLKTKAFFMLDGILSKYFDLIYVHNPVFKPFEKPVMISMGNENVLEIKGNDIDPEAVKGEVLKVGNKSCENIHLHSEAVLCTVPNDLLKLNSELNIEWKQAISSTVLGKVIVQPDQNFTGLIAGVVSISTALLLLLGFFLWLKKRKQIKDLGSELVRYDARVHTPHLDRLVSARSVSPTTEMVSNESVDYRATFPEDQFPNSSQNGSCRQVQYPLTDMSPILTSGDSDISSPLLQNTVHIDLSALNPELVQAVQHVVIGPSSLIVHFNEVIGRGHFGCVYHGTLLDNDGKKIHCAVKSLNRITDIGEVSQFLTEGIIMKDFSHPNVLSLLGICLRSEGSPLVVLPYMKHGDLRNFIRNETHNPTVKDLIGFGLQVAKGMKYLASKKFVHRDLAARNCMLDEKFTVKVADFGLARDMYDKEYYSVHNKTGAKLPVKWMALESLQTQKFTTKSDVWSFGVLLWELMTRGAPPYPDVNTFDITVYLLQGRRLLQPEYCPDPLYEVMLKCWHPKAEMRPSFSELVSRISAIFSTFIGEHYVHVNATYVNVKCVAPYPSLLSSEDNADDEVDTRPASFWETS
Protocol: Cells then were washed 3 times with 1×PBS containing 0.5% BSA to remove unbound peptides before analysis with flow cytometry (FACS Canto; BD Biosciences, San Jose, CA). Sample means were used to calculate the equilibrium dissociation constant KD using nonlinear regression analysis with Origin 6.1 data analysis software (OriginLab, Northampton, MA). KD=1/KA was calculated by performing a least-squares fit of the data to the nonlinear equation I[X]=(I0+Imaxka[X])/(I0+ka[X]). I0 and Imax are the initial and maximum fluorescence intensities, corresponding to no peptide and peptide saturation, respectively, and [X] represents the concentration of the bound peptide.^34

| Compound | phosphorylation of cMet and downstream AKT and ERK1/2 [1] | growth of HT29 cells [2] | growth of CCD841 cells [3] | pKd [4] |
| --- | --- | --- | --- | --- |
| HGF: recombinant human hepatocyte growth factor, known ligand for cMet, positive control | strong phosphorylation activity; also recorded: induced phosphorylation | increased growth | – | – |
| CC(C)C[C@H](NC(=O)[C@H](CO)NC(=O)[C@H](Cc1c[nH]c2ccccc12)NC(=O)[C@H](CC(N)=O)NC(=O)[C@@H](NC(=O)[C@H](CCC(N)=O)NC(=O)[C@@H](N)CCC(N)=O)[C@@H](C)O)C(=O)NCC(=O)NCC(=O)NCC(=O)N[C@@H](CO)C(=O)N[C@@H](CCCCNC(=O)CCCCC[N+]1=C(/C=C/C=C/C=C2/N(C)c3ccc4ccccc4c3C2(C)C)C(C)(C)c2c1ccc1ccccc21)C(N)=O [QQT*-Cy5.5] (H-QQTNWSLGGGSK(X1)-NH2) | – | – | no effect on growth; also recorded: No change | 7.24 |
